Patent publication US10017487B2, “Fused heterocyclic compound” (Takeda Pharmaceutical Company Limited, priority 2015, dated 2018)
Structures can show the parent of a compound that is named as a salt.

What was measured:
[1] = target: T1, Human recombinant enteropeptidase (Homo sapiens, UniProt P98073); test: Human enteropeptidase inhibitory activity; format: biochemical; details: 3.3 μM test compound; fluorescence intensity at 2 hours after start of reaction; read-out: Inhibition rate at 3.3 μM
T1 construct: purchased ITSI-Biosciences LLC #REN-260
Procedure: Human recombinant enteropeptidase (#REN-260, ITSI-Biosciences LLC) was diluted with an assay buffer (50 mM Tricine, pH 8.0, 0.01 (w/v) %, Tween 20, 10 mM CaCl2) to prepare a 24 mU/mL enzyme solution. Subsequently, 5FAM-Abu-Gly-Asp-Asp-Asp-Lys-Ile-Val-Gly-Gly-Lys(CPQ2)-Lys-Lys-NH2 (purity: 97.2%, CPC Scientific Inc., SEQ ID NO: 1) was diluted with the assay buffer to prepare a 2.1 μM substrate solution. A test compound is dissolved in DMSO into a 1 mM solution, and the solution was diluted by 100-fold with the assay buffer to give a compound solution. To a 384-well black plate (#784076, Greiner Bio-One), 5 μL of the compound solution and 5 μL of the substrate solution were added and mixed, and 5 μL of the enzyme solution was then added to the mixture, followed by mixing to start the reaction. The fluorescence intensity was measured with a fluorescence plate reader EnVision (The Perkin-Elmer Corp.) at an excitation wavelength of 485 nm and a fluorescence wavelength of 535 nm. The same reaction as above except that the test compound was not contained was performed (test compound non-addition group). Furthermore, the same reaction as above except that the test compound and the enzyme were not contained was performed (control group). The inhibition rate was calculated using the fluorescence intensity at 2 hours after the start of the reaction by the following expression: Inhibition rate (%)=(1-((fluorescence intensity of test compound addition group)−(fluorescence intensity of control group))/((fluorescence intensity of test compound non-addition group)−(fluorescence intensity of control group)))×100

DIO mouse = test: Anti-obesity effect test using DIO mouse; format: in vivo; details: DIO mice, group average
Procedure: Diet-induced obesity (DIO) mice (D12079B diet, male, 32-week old) were orally administered with a 0.5% methyl cellulose suspension containing a test compound (30 mg/kg) (compound administration group, six mice per group) or a 0.5% methyl cellulose suspension (compound non-administration group (vehicle), six mice per group) once a day for eight days. The averages of the body weights at the start of administration and after continuous administration for eight days are shown below.

HFD-fed mouse = test: Fecal protein concentration-increasing test using HFD-fed mouse; format: in vivo; details: HFD-fed mice, 10 mg/kg oral, whole feces of first day of administration, group average
Procedure: High fat diet-fed (HFD-fed) mice (D12079B diet, male, 19-week old) were orally administered with a 0.5% methyl cellulose suspension containing a test compound (10 mg/kg) (compound administration group, six mice per group) or a 0.5% methyl cellulose suspension (compound non-administration group (vehicle), five mice per group), and whole feces were collected on the first day of administration. Dried feces were dissolved in 0.5 N NaOH, followed by centrifugation at 12,000 rpm. The protein concentration in the supernatant was then quantitatively measured (Lowry method), and the amount of protein contained in 1 g of feces was calculated as the fecal protein concentration (mg/g feces). The average of each group is shown below.

T1 sequence (P98073 whole entry): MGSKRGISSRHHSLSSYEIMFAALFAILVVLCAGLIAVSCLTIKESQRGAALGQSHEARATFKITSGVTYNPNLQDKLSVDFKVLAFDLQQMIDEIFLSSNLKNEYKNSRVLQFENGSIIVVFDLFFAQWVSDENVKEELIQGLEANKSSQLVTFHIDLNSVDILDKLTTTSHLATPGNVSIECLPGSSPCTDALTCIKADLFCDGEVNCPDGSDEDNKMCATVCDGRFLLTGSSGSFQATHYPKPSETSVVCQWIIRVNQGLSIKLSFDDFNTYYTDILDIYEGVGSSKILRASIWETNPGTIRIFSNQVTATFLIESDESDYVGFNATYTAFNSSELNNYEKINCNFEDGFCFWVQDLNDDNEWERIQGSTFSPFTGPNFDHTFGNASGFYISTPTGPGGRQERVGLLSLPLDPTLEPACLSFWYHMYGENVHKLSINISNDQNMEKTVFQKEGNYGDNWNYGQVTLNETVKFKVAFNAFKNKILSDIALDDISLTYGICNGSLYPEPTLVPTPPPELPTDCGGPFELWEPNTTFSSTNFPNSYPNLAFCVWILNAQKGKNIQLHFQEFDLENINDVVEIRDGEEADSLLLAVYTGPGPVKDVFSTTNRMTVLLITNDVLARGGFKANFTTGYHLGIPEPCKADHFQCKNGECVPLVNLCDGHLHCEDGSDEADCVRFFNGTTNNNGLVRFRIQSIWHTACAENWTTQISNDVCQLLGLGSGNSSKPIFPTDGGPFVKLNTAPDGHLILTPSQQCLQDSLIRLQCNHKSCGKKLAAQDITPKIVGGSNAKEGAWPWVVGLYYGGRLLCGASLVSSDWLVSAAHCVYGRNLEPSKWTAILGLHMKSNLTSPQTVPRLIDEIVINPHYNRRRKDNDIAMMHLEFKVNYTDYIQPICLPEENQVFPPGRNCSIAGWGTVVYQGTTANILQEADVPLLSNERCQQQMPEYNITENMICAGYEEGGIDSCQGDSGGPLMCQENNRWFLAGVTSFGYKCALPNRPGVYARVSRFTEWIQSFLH

Row | inhibition at 3.3 µM [1] [%] | SMILES | Body weight (g) After continuous administration for 8 days (DIO mouse; 30 mg/kg oral once a day for eight days) [g] | Body weight (g) At start of administration (DIO mouse; 30 mg/kg oral once a day, baseline) [g] | Fecal protein concentration (HFD-fed mouse) [mg/g feces]
1 | 101 | N=C(N)Nc1ccc(C(=O)Oc2cc3c(c(C4=NOC(CC(=O)O)(C(=O)O)C4)c2)CCO3)cc1 (stereo not drawn) [Example 6, 3-(6-((4-Carbamimidamidobenzoyl)oxy)-2,3-dihydro-1-benzofuran-4-yl)-5-(carboxymethyl)-4,5-dihydro-1,2-oxazole-5-carboxylic acid] | – | – | –
2 | 100 | CC1(C)Cc2c(cc(OC(=O)c3ccc(NC(=N)N)cc3)cc2C2=NOC(CC(=O)O)(C(=O)O)C2)O1 (stereo not drawn) [Example 5, 3-(6-((4-carbamimidamindobenzoyl)oxy)-2,2-dimethyl-2,3-dihydro-1-benzofuran-4-yl)-5-(carboxymethyl)-4,5-dihydro-1,2-oxazole-5-carboxylic acid] | – | – | –
3 | 101 | N=C(N)Nc1ccc(C(=O)Oc2cc3c(c(C(=O)NCS(=O)(=O)O)c2)CCO3)cc1 [Example 3, (((6-((4-carbamimidamindobenzoyl)oxy)-2,3-dihydro-1-benzofuran-4-yl)carbonyl)amino)methanesulfonic acid] | – | – | –
4 | 101 | N=C(N)Nc1ccc(C(=O)Oc2cc3c(c(C(=O)NCCCS(=O)(=O)O)c2)CCO3)cc1 [Example 2, 3-(((6-((4-carbamimidamindobenzoyl)oxy)-2,3-dihydro-1-benzofuran-4-yl)carbonyl)amino)propane-1-sulfonic acid] | – | – | –
5 | 101 | N=C(N)Nc1ccc(C(=O)Oc2cc3c(c(C(=O)NCP(=O)(O)O)c2)CCO3)cc1 [Example 4, ((((6-((4-Carbamimidamidobenzoyl)oxy)-2,3-dihydro-1-benzofuran-4-yl)carbonyl)amino)methyl)phosphonic acid hydrochloride] | – | – | –
6 | 101 | N=C(N)Nc1ccc(C(=O)Oc2cc3c(c(C(=O)NCCS(=O)(=O)O)c2)CCO3)cc1 [Example 1, 2-(((6-((4-Carbamimidamidobenzoyl)oxy)-2,3-dihydro-1-benzofuran-4-yl)carbonyl)amino)ethanesulfonic acid] | 42.8 | 43.5 | 188.8
